This is an account of results in patent US7129266B2, “Antibiotic Cyan426-A” (Wyeth Holdings Corporation, priority 2002, dated 2006).

Common to all, as to test: In vitro antibacterial test, MIC by broth dilution
Holding throughout (format): cell-based

One experiment has as its system Enterococcus faecalis. To be noted: 18 hours at 35° C. As to the method: (§1) The minimum inhibitory concentration (MIC), the lowest concentration of the antibiotic which inhibits growth of the test organism, is determined by the broth dilution method using Muller-Hinton II […] (Baltimore Biological Laboratories) following the recommendations of the National Committee for Clinical Laboratory Standards [Methods for dilution antimicrobial susceptibility tests for bacteria that grow aerobically. Approved standard M7-A2. National Committee for Clinical Laboratory Standards, Villanova, Pa.].
(§2) An inoculum level of 5×10^5 CFU/ml, and a range of antibiotic concentrations (64–0.06 μg/ml) is used. The MIC is determined after the microtiter plates are incubated for 18 hours at 35° C. in an ambient air incubator. The test organisms comprise a spectrum of Gram-positive bacteria Staphylococcus sp., Streptococcus pneumoniae, Enterococcus sp., Gram-negative bacteria Escherichia coli, and the yeast Candida albicans. These organisms include recent clinical isolates that are resistant to piperacillin or vancomycin.

Another experiment deals with Staphylococcus aureus. To be noted: 18 h. As to the method:
as §1, §2

A further experiment has as its system Streptococcus pneumoniae. To be noted: 18 h. The protocol:
as §1, §2

In another experiment the test system is Candida albicans. Conditions: Candida albicans GC 3066; 18 hours at 35° C. As to the method:
as §1, §2

For experiment [1], the system named is Staphylococcus haemolyticus. Conditions: Staphylococcus haemolyticus GC 4547, resistant to methicillin; 18 hours at 35° C. The protocol: as §1, §2
In a further experiment the test system is Escherichia coli. To be noted: 18 hours at 35° C. As to the method:
as §1, §2

The next experiment deals with Enterococcus faecium. To be noted: 18 h. As to the method: as §1, §2

Converted amounts (≈) assume the structure as drawn. Read-outs that look alike come from different tables or passages of the source.

Take `C=CC1C=C(C)C2C3C(Oc4ccc(cc4)CC4(O)C=C(C(=O)N4)C(=O)C13)C1C(C)CC(C)CC21C` (stereo not shown) [Cyan426-A]: the MIC against Enterococcus faecalis (Enterococcus faecalis GC 2242, resistant to vancomycin) amounted to 0.50 µg/mL (≈ 1.03 µM); against Enterococcus faecalis (Enterococcus faecalis GC 4555), 0.50 µg/mL (≈ 1.03 µM); in the experiment on Enterococcus faecalis (Enterococcus faecalis GC 6189, read-out: MIC), 0.5 µg/mL (≈ 1.03 µM); in the experiment on Staphylococcus aureus (Staphylococcus aureus GC 1131, resistant to methicillin, 18 hours at 35° C.), 2 µg/mL (≈ 4.1 µM); in the experiment on Staphylococcus aureus (Staphylococcus aureus GC 2216, 18 hours at 35° C.), 1 µg/mL (≈ 2.05 µM); against Staphylococcus aureus (Staphylococcus aureus GC 4541, resistant to methicillin, 18 hours at 35° C.), 0.25 µg/mL (≈ 0.513 µM). Besides, the MIC with Staphylococcus aureus (Staphylococcus aureus GC 4543, 18 hours at 35° C.) was 1 µg/mL (≈ 2.05 µM); in the experiment on Streptococcus pneumoniae (Streptococcus pneumoniae GC 1894, 18 hours at 35° C.), 64 µg/mL (≈ 131 µM); against Streptococcus pneumoniae (Streptococcus pneumoniae GC 6242, 18 hours at 35° C.) it was 16 µg/mL (≈ 32.8 µM); against Candida albicans, 8 µg/mL (≈ 16.4 µM); in experiment [1] it was 0.25 µg/mL (≈ 0.513 µM); in the experiment with Escherichia coli (Escherichia coli GC 4559, read-out: MIC), 128 µg/mL (≈ 262 µM). Also, the MIC against Escherichia coli (Escherichia coli, 18 h, Escherichia coli GC 4560 (imp)) worked out at 2 µg/mL (≈ 4.1 µM); against Enterococcus faecium (Enterococcus faecium GC 2243, marked * (resistant to methicillin), 18 hours at 35° C.) it was 1 µg/mL (≈ 2.05 µM); against Enterococcus faecium (Enterococcus faecium GC 4556, 18 hours at 35° C.) it was 1 µg/mL (≈ 2.05 µM); against Enterococcus faecium (Enterococcus faecium GC 4558, marked * (resistant to methicillin), 18 hours at 35° C.), 0.5 µg/mL (≈ 1.03 µM).
